Measured values from patent publication US20120028288A1, “Method for Measuring Cell Motility and System Therefor” (priority 2005, published 2012).
Entries after “also recorded” stand apart in the source; their conditions may differ.

Columns and labels:
[1] = test system: eosinophils obtained from blood samples of normal subjects; assay: Eosinophil chemotactic experiment toward various chemotactic factors (time-lapse tracking; VD plot, CRT and CLT analysis); settings: for rate of cells having a high specific motility in the concentration gradient direction in the VD plot / Chemotaxis Lifetime (CLT) / migration duration time, in words / Chemotactic Response Time (CRT) / time course of migration start, in words: normal subject eosinophils; for rate of cells having a high specific motility in the concentration gradient direction in the VD plot: CCL3, CCL5 5 μM, CXCL12, fMLP, PGD2 1 μM, vs control without factor (N.C.); for Chemotaxis Lifetime (CLT) / migration duration time, in words / Chemotactic Response Time (CRT) / time course of migration start, in words: concentration gradient of factor; for Chemotactic Response Time (CRT) / time course of migration start, in words: ACR viewed at 5 and 45 minutes
Procedure: Blood samples were obtained from patients and normal subjects, after a confirmation of informed consent. The blood samples were subjected to hemolytic reaction by water treatment and centrifugal separation, repeated twice, and thereafter a magnetic cell separation method was conducted so as to separate eosinophil therefrom. MACS (Miltenyi Biotec GmbH, Germany) was used for the magnetic cell separation, and the separation was performed by the negative selection method using anti-human CD3, CD14, CD16, and CD19 antibody-labeled paramagnetic microbeads. The magnetic cell separation method was conducted pursuant to the manual of Miltenyi Biotec GmbH. The cells obtained were washed with PBS, and thereafter suspended in RPMI-HEPES culture medium containing 1% FCS at the concentration of 5×10^6 cells/ml, and used for the subsequent experiment.
Structural setting of the system and the measuring method were carried out according to the aforementioned procedure.
In the measurement, the observation support unit of the system was filled up with RPMI-HEPES medium containing 1% FCS, and maintained at 37° C. to have the cells and the chemotactic factor being injected, and thereafter, the state of the cells was subjected to the time-lapse imaging. […] Imaging was performed at time-lapse intervals of one minute, and twelve samples at the maximum per one holder were subjected to the imaging in parallel.
The aforementioned program was used for the identification and tracking of the cell. […] With this software, when a user highlighted an area in the image as an analysis target, the cells in the area were identified and tracking was executed. Automatic cell tracking was performed according to the following procedure; a positional change in the time-lapse image was corrected, and then a position of the cell being the closest in the adjacent time-frame photo was sequentially designated and stored. Since an error might be included in the automatic cell tracking, the migratory pathway of the cell being obtained was appropriately corrected based on a visual judgment by a human. […] According to the obtained migratory pathway information of the cells, one by one, time-series data such as the position, velocity, and directionality of the cells was acquired. In order to avoid exerting an effect of artificial bias on the data, a third person, who was not informed of the details of the experiment, conducted the cell identification and tracking works by using the present software.
VD plot (Velocity-Direction plot) was obtained by calculating median values, as to the values of the time-series data of the velocity and directionality of individual cells, plotting the median value of velocity on the vertical axis and the median value of directionality on the horizontal axis. A gate was set on the graph surface, indicating an index of the cellular chemotaxis, and a rate of the cells included in the gate was obtained. Mann-Whitney U-test was employed for a difference test concerning the rate of the cells.
In the calculation of Chemotactic Response Time (CRT) and of Chemotaxis Lifetime (CLT) of the cell, an Exponential Moving Average (EMA) was calculated based on time-series data of the cell migration velocity, and the cellular chemotaxis was defined by the state where the value of EMA exceeded a certain threshold. In other words, CRT was a time period from start of the measurement until the time when the EMA firstly exceeded the threshold, and an elapsed time from the time when EMA firstly exceeded the threshold until it fell below the threshold was CLT.

[2] = test system: eosinophils from normal, allergy/atopy and asthma patient donors; assay: Chemotaxis analysis of eosinophils of allergy/atopy and asthma patients compared with normal subjects (TAXIScan; VD plot, CRT and CLT analysis)

## CSCC[C@H](NC=O)C(=O)N[C@@H](CC(C)C)C(=O)N[C@@H](Cc1ccccc1)C(=O)O [fMLP, N-formyl-methionyl-leucyl-phenylalanine]
[1]
  rate of cells having a high specific motility in the concentration gradient direction in the VD plot: little difference from the control
  Chemotaxis Lifetime (CLT) / migration duration time, in words: most of the cells stopped migration within 15 minutes; also recorded: relatively shorter than the other factors
  Chemotactic Response Time (CRT) / time course of migration start, in words: started moving gradually as time advanced
[1]; normal subjects
  share of eosinophils that migrated according to the CRT analysis: about half
[2]; allergy/atopy patients and asthma patients vs normal subjects
  rate of cells that continued migration for five minutes or more (CLT analysis), patients compared to normal subjects: not found a significant difference
[2]; eosinophils of asthma patients, PGD2 or fMLP 1 μM gradient
  cell motility from VD plot, asthma patients (III) compared to normal subject (I): significant difference
[2]; groups I, II, III
  CRT analysis: difference between patient groups and normal subjects: not a large difference

B1: CCL3: Recombinant Human MIP-1 alpha (CCL3; Macrophage Inflammatory Protein-1 alpha), purchased from PeproTech (protein, UniProt P10147 24-92, looked up)
C-C motif chemokine 3: SLAADTPTACCFSYTSRQIPQNFIADYFETSSQCSKPGVIFLTKRSRQVCADPSEEWVQKYVSDLELSA
[1]
  rate of cells having a high specific motility in the concentration gradient direction in the VD plot: high motility
  Chemotaxis Lifetime (CLT) / migration duration time, in words: short relative to CCL5 or CXCL12
  Chemotactic Response Time (CRT) / time course of migration start, in words: started moving gradually as time advanced

B2: CCL5: Recombinant Human RANTES (CCL5; Regulation upon Activation Normal T cell Express Sequence), purchased from PeproTech (protein, UniProt P13501 24-91, looked up)
C-C motif chemokine 5: SPYSSDTTPCCFAYIARPLPRAHIKEYFYTSGKCSNPAVVFVTRKNRQVCANPEKKWVREYINSLEMS
[1]
  rate of cells having a high specific motility in the concentration gradient direction in the VD plot: little difference from the control
  Chemotaxis Lifetime (CLT) / migration duration time, in words: long lifetime tendency
  Chemotactic Response Time (CRT) / time course of migration start, in words: hardly started migration; also recorded: turned up gradually after lapse of approximately one hour
